Test results published in US12729194B2, “Compounds for the treatment of human immunodeficiency virus” (priority 2019, dated 2026).

Tested on: cell-surface HIV-1AD8 Env
Assay: Recognition of cell-surface Env by C34-Ig and CD4-Ig
Format: cell-based
Description: Immunoprecipitation of cell-surface Env: Doxycycline-induced A549-Env cells were washed twice with washing buffer (1×PBS+5% FBS), with or without 10 μM BMS-806 or compounds described herein. The cells were then incubated with 5 μg/ml antibody for one hour at 4° C. in the continued presence or absence of the compounds described herein. After washing four times in washing buffer, the cells were lysed in NP-40 lysis buffer (0.5% NP-40, 0.5 M NaCl, 10 mM Tris, pH 7.5) for five minutes at 4° C. with gentle agitation. Unless specifically indicated otherwise, compounds described herein were not added to the NP-40 lysis buffer. The lysates were cleared by centrifugation at 13,200×g for 20 minutes at 4° C., and the clarified supernatants were incubated with Protein A-Sepharose beads (50 μl of 25 mg/ml in PBS per sample) for one hour at room temperature. The beads were pelleted (1000 rpm×1 min) and washed three times with final wash buffer (200 mM Tris-HCl, pH 8.0, 100 mM (NH4)2SO4, 1 M NaCl and 0.1% NP-40). The beads were suspended in LDS sample buffer, boiled and analyzed by Western blotting using 1:2000 goat anti-gp120 polyclonal antibody (ThermoFisher) and 1:2000 HRP-conjugated rabbit anti-goat IgG (ThermoFisher). The transmembrane Env was analyzed by Western blot with the 4E10 anti-gp41 antibody and HRP-conjugated goat anti-human IgG (Santa Cruz).
The effect of BMS-806 on the recognition of the cell-surface HIV-1AD8 Env by CD4-Ig and C34-Ig was evaluated. CD4-Ig is a soluble CD4-immunoglobulin fusion protein, and C34-Ig contains the gp41 HR2 region fused to an immunoglobulin Fc. C34-Ig efficiently recognized the cell-surface Env only after incubation with soluble CD4 (sCD4) (FIG. 1C, left panel). BMS-806 blocked C34-Ig recognition of Env in the presence of sCD4.

## COc1ccnc2[nH]cc(C(=O)C(=O)N3CCN(C(=O)c4ccccc4)C[C@H]3C)c12 [BMS-806, reference compound]
500 nM
  CD4-Ig binding to the gp120 and gp160 Envs: still detected
500 nM, with sCD4
  C34-Ig binding to Env: inhibited almost completely
10 μM
  CD4-Ig recognition of Env: inhibited CD4-Ig recognition of the gp120 glycoprotein on the mature Env, but not the uncleaved gp160 Env
